{"source": "paper PMC8864869", "about": "“A short peptide derived from pigment epithelial-derived factor exhibits an angioinhibitory effect” (BMC Ophthalmology, 2022)", "molecules": {"B1": {"name": "PEDF: a 50 kDa secreted glycoprotein (protein, UniProt P36955 20-418, looked up)", "Pigment epithelium-derived …": "QNPASPPEEGSPDPDSTGALVEEEDPFFKVPVNKLAAAVSNFGYDLYRVRSSTSPTTNVLLSPLSVATALSALSLGAEQRTESIIHRALYYDLISSPDIHGTYKELLDTVTAPQKNLKSASRIVFEKKLRIKSSFVAPLEKSYGTRPRVLTGNPRLDLQEINNWVQAQMKGKLARSTKEIPDEISILLLGVAHFKGQWVTKFDSRKTSLEDFYLDEERTVRVPMMSDPKAVLRYGLDSDLSCKIAQLPLTGSMSIIFFLPLKVTQNLTLIEESLTSEFIHDIDRELKTVQAVLTVPKLKLSYEGEVTKSLQEMKLQSLFDSPDFSKITGKPIKLTQVEHRAGFEWNEDGAGTTPSPGLQPAHLTFPLDYHLNQPFIFVLRDTDTGALLFIGKILDPRGP"}}, "key": {"[1]": {"conditions": "cited from earlier work; for anti-angiogenic and antitumor activities of human PEDF: previous studies", "source_text": "Pigment epithelial-derived factor (PEDF) was initially identified in the culture supernatant of human fetal retinal pigment epithelial cells, with the ability to promote neuronal differentiation of retinoblastoma Y79 cells. […] Presently, full-length PEDF is considered to be less suitable as an anti-angiogenic agent than PEDF-derived active fragments because of several issues, including antigenicity, s ... || Identification of angioinhibitory peptides derived from PEDF may be a promising strategy for improving the treatment of angiogenesis-related diseases. […] Here, we found for the first time that the 7-mer peptide (D64-S70), representing a minimal region within PEDF, reproduced the anti-VEGF effect, comparab ..."}, "RPMI8226 cells [2]": {"test_system": "RPMI8226 cells", "assay_type": "cell-based, human", "conditions": "for MTT value, VEGF-induced RPMI8226 cell proliferation: 10 ng/ml VEGF + 25 μM peptide, serum-free medium, solvent-treated/untreated cells set as 100%, three independent experiments", "protocol": "Human multiple myeloma cells, RPMI8226 were purchased from Bioresource Collection and Research Center (Hsinchu, Taiwan). Cells were cultivated in RPMI1640 medium supplemented with 10% FBS, 50 μg/ml penicillin, 50 μg/ml streptomycin, and 2 mM L-glutamine at 37 °C in a 5% CO2 atmosphere. Cell viability was determined by an MTT assay. […] MTT stock solution added to medium alone was included as a negative control. Aliquots (450 μl) from each sample were transferred to a new well of a 48-well culture plate, 100 μl DMSO added with thorough mixing, and allowed to react at 37 °C for 20 min before reading the absorbance at 570 nm."}, "RPMI8226 cells [3]": {"test_system": "RPMI8226 cells", "test": "Annexin V-FITC/PI double-staining apoptosis assay in RPMI8226 cells", "assay_type": "cell-based, human", "protocol": "(§1) Cell apoptosis was examined using a TACS annexin V-FITC kit according to the manufacturer’s instructions for in situ staining. The cell numbers were monitored by counterstaining with Hoechst 33342. Afterward, apoptosis was examined and photographed by a Zeiss epifluorescence microscope (× 100, 10 fields/sample). Images were recorded on Zeiss software.\nFig. 2 The 34-mer and 7-mer induce apoptosis of RPMI8226 cells. a Fluorescence microscopy of annexin V-FITC/PI double staining. Treatment of RPMI8226 cells was as described in Fig. 1. Apoptosis was determined by annexin V-FITC staining (green dots) and double stained with propidium iodide (red dots). A representative of three independent experiments is shown. b The percentage of apoptotic cells was quantified by dividing the number of annexin V-positive cells by the total number of cells counted by phase-contrast light microscopy. Control peptide indicates cells were treated with the 5-mer. Histograms show means ± SD. ^aP < 0.005 versus peptide solvent-treated cells. ^bP < 0.0002 versus VEGF-treated cells. ^cP < 0.001 versus 34-mer-treated cells\nFig. 3 The 7-mer induces JNK signaling to trigger RPMI8226 cell apoptosis. 3 × 10^5 cells were serum starved for 24 h and then exposed to 10 ng/ml VEGF and 25 μM 7-mer for the indicated time periods. a Western blotting was performed to detect the active phosphorylated forms of JNK (p-JNK) and p38 MAPK (p-p38), shown in the upper panels. Antibodies were then stripped and the blots were re-incubated with anti-JNK and anti-p38 MAPK antibodies (lower panels), respectively, to detect the levels of total JNK and p38 MAPK. b Densitometric analyses from three independent experiments are shown. c Cell were pretreated with 10 μM SP600125 or SB203580 for 10 min and then treated as described above for 24 h and apoptosis was quantified using the annexin V-FITC apoptosis detection kit. *P < 0.0001 versus 7-mer-treated cells"}, "HUVECs [4]": {"test_system": "HUVECs", "test": "Annexin V-FITC apoptosis assay in HUVECs", "assay_type": "cell-based, human", "conditions": "0.5% FBS, 16 h", "protocol": "(§2) Cells were grown in Medium 200 with LSGS (supplement contains 1.9% fetal bovine serum, 3 ng/ml bFGF, 10 μg/ml heparin, 1 μg/ml hydrocortisone, and 10 ng/ml EGF). Culture plates were coated with 2% gelatin. Cells (passages 4–8) were cultured at 37 °C in a humidified atmosphere of 5% CO2. For peptide treatment, HUVECs were cultured in low serum (0.5% FBS) medium containing 20 ng/ml VEGF and 7-mer peptide (20 μM, unless otherwise specified).\nas §1\n(§3) The experiment was repeated three times. Magnification is × 40. b The 7-mer induces HUVEC apoptosis in the presence of VEGF. Cell apoptosis was analyzed using the Annexin V-FITC Apoptosis Detection kit according to the in situ staining protocol after treatment for 16 h. Double staining with an annexin V-FITC and the fluorescent dye Hoechst 33342 was used to visualize the apoptotic cells (green) and nuclei (blue), respectively. A representative result of four independent experiments is shown. The percentages of apoptotic cells were quantified. ^aP < 0.005 versus VEGF-treated cells"}, "[5]": {"test_system": "p53, Bax, p21, cleaved caspase-3", "test": "Western blot of p53, Bax, p21 and cleaved caspase-3 in RPMI8226 cells", "assay_type": "cell-based, human", "conditions": "10 μM inhibitor pretreatment, then VEGF + 25 μM 7-mer", "source_text": "Cell lysis and SDS–PAGE were as described previously. Antibodies used in this study were for active p38 MAPK and active JNK (Promega, Madison, WI), p38 MAPK/SAPK2, JNK (Upstate Biotechnology, Lake Placid, NY), p53 (Chemicon, Temecula, CA), bax, p21, cleaved caspase-3 and β-actin (Abcam Ltd., Cambridge, UK). Proteins of interest were detected using the appropriate IgG-horseradish peroxidase-linked secondary antibody (Santa Cruz Biotechnology) and enhanced chemiluminescence reagent (Amersham, Arlington Heights, IL). X-ray films were scanned on a model GS-700 Imaging Densitometer (Bio-Rad, Hercules, CA) and analyzed with Labworks 4.0 software. For quantification, blots from at least three independent experiments were used.\nFig. 4 The 7-mer induces JNK signaling to trigger p53/bax/p21^Waf1 expression in RPMI8226 cells. a and b Cell treatments were as described in Fig. 3. Cell lysates were then prepared for western blot analysis of p53, Bax, and p21. Representative blots and densitometric analyses from three independent experiments are shown. ^*P < 0.001 versus 7-mer-treated cells"}, "HUVECs [6]": {"test_system": "HUVECs", "test": "Endothelial cell capillary-like tube formation assay", "assay_type": "cell-based, human", "conditions": "20 ng/ml VEGF, 10 μM 7-mer, matrigel, 0.5% FBS, 6 h", "protocol": "as §2\nGrowth factor-reduced matrigel was pipetted into pre-chilled 24-well plates (150 μl matrigel per well) and polymerized for 45 min at 37 °C. HUVECs (4 × 10^4 per well) in low serum (0.5% FBS) medium were treated with 20 ng/ml VEGF and 7-mer (10 μM) in matrigel coated plates. After 6 h of incubation, tubular structures were photographed. Images were captured using a Cannon camera on a Zeiss inverted microscope with magnification × 40.\nas §3, with “A representative result of four independent experiments is shown.” left out"}}, "note": "Where no end group is shown, it is not given here.", "data": [{"molecule": "18-mer: PEDF fragment Asn60-Asn77 of previous studies (NFGYDLYRVRSSTSPTTN; UniProt P36955 60-77, looked up, fragment)", "values": [{"measurement": "neurotrophic activity", "setting": "[1]", "result": "no neurotrophic activity"}, {"measurement": "anti-angiogenic and antitumor activities of human PEDF", "setting": "[1]", "result": "preserve the anti-angiogenic and antitumor activities of human PEDF"}]}, {"molecule": "7-mer L65 alanine substitution: 7-mer with single alanine substitution of L65 (DAYRVRS; ends and bridges not checked; UniProt P36955 64-70, looked up, variant L65A)", "values": [{"measurement": "MTT value, VEGF-induced RPMI8226 cell proliferation", "setting": "RPMI8226 cells [2]; 24 h, mean ± SD", "result": "74 ± 0.9", "unit": "%"}]}, {"molecule": "D64N/L65V double mutant of the 7-mer: 7-mer with D64N/L65V double mutation (NVYRVRS; ends and bridges not checked; UniProt P36955 64-70, looked up, variant D64N L65V)", "values": [{"measurement": "MTT value, VEGF-induced RPMI8226 cell proliferation", "setting": "RPMI8226 cells [2]; 24 h, mean ± SD", "result": "117 ± 4.1", "unit": "%"}]}, {"molecule": "23-mer: PEDF fragment A55-N77 of previous studies (AAAVSNFGYDLYRVRSSTSPTTN; UniProt P36955 55-77, looked up, fragment)", "values": [{"measurement": "anti-angiogenic and antitumor activities of human PEDF", "setting": "[1]", "result": "devoid of PEDF activity"}]}, {"molecule": "VEGF", "values": [{"measurement": "MTT value, RPMI8226 cells with VEGF alone", "setting": "RPMI8226 cells [2]; 10 ng/ml VEGF without peptide, 24 h, untreated cells set as 100%, mean ± SD", "result": "120 ± 3.9", "unit": "%"}, {"measurement": "apoptotic (annexin V+) RPMI8226 cells with VEGF alone", "setting": "RPMI8226 cells [3]; 10 ng/ml VEGF, serum-free, serum deprivation alone 14.0 ± 1.7%", "result": "6.5 ± 1.1", "unit": "%"}, {"measurement": "apoptotic HUVECs, VEGF-treated only", "setting": "HUVECs [4]; 20 ng/ml VEGF", "result": "6.3 ± 1.6", "unit": "%"}]}, {"molecule": "Oc1c2ccccc2c2c3c(cccc13)N=N2", "note": "[SP600125, reference compound]", "values": [{"measurement": "7-mer-induced RPMI8226 cell apoptosis after inhibitor pretreatment", "setting": "RPMI8226 cells [3]; 10 μM inhibitor for 10 min, then 10 ng/ml VEGF + 25 μM 7-mer for 24 h, 7-mer alone 38.6 ± 2.1%", "result": "11.6 ± 1.5", "unit": "%"}, {"measurement": "7-mer-induced increases of p53, bax, p21 and cleaved caspase-3 after inhibitor pretreatment", "setting": "[5]", "result": "significantly inhibited"}]}, {"molecule": "34-mer: PEDF amino acid positions Asp44-Asn77, N-acetylated, C-amidated (Ac-DPFFKVPVNKLAAAVSNFGYDLYRVRSSTSPTTN-NH2; UniProt P36955 44-77, looked up, fragment) [reference compound]", "values": [{"measurement": "cytotoxic effect on RPMI8226 cells in the absence of VEGF", "setting": "RPMI8226 cells [2]", "result": "neither peptide had a significant cytotoxic effect"}, {"measurement": "MTT value, VEGF-induced RPMI8226 cell proliferation", "setting": "RPMI8226 cells [2]; 24 h, mean ± SD", "result": "84 ± 4.0", "unit": "%"}, {"measurement": "dose dependence of cell viability of VEGF-treated RPMI8226 cells", "setting": "RPMI8226 cells [2]; 1, 5, 10 and 25 μM peptide with VEGF, MTT", "result": "cell viability decreased significantly with the 34-mer treatment at 10 and 25 μM, but not at 1 and 5 μM"}, {"measurement": "apoptotic (annexin V+) RPMI8226 cells", "setting": "RPMI8226 cells [3]; 10 ng/ml VEGF + 25 μM peptide, 24 h, serum-free, early + late apoptosis, mean ± SD, three independent experiments", "result": "25.1 ± 2.2", "unit": "%"}, {"measurement": "VEGF-stimulated tube-like network of HUVECs", "setting": "HUVECs [6]", "result": "marked decrease of the VEGF-stimulated tube-like network"}, {"measurement": "apoptotic HUVECs (annexin V-FITC)", "setting": "HUVECs [4]; 20 ng/ml VEGF + peptide (20 μM), four independent experiments", "result": "20.1 ± 4.4", "unit": "%"}, {"measurement": "neurotrophic activity", "setting": "[1]", "result": "no neurotrophic activity"}, {"measurement": "anti-angiogenic and antitumor activities of human PEDF", "setting": "[1]", "result": "preserve the anti-angiogenic and antitumor activities of human PEDF"}]}, {"molecule": "7-mer D64 alanine substitution: 7-mer with single alanine substitution of D64 (ALYRVRS; ends and bridges not checked; UniProt P36955 64-70, looked up, variant D64A)", "values": [{"measurement": "MTT value, VEGF-induced RPMI8226 cell proliferation", "setting": "RPMI8226 cells [2]; 24 h, mean ± SD", "result": "69 ± 3.5", "unit": "%"}]}, {"molecule": "B1", "values": [{"measurement": "MTT value, VEGF-induced RPMI8226 cell proliferation", "setting": "RPMI8226 cells [2]; 24 h, mean ± SD", "result": "93 ± 3.8", "unit": "%"}]}]}
